{"source": "ChEMBL document CHEMBL3217588", "about": "“Discovery and activity profiling of thailandepsins A through F, potent histone deacetylase inhibitors, from Burkholderia thailandensis E264” (Medchemcomm, 2012)", "key": {"Histone deacetylase 4": {"molecular_target": "Histone deacetylase 4 (Homo sapiens, UniProt P56524)", "sequence (P56524 whole entry)": "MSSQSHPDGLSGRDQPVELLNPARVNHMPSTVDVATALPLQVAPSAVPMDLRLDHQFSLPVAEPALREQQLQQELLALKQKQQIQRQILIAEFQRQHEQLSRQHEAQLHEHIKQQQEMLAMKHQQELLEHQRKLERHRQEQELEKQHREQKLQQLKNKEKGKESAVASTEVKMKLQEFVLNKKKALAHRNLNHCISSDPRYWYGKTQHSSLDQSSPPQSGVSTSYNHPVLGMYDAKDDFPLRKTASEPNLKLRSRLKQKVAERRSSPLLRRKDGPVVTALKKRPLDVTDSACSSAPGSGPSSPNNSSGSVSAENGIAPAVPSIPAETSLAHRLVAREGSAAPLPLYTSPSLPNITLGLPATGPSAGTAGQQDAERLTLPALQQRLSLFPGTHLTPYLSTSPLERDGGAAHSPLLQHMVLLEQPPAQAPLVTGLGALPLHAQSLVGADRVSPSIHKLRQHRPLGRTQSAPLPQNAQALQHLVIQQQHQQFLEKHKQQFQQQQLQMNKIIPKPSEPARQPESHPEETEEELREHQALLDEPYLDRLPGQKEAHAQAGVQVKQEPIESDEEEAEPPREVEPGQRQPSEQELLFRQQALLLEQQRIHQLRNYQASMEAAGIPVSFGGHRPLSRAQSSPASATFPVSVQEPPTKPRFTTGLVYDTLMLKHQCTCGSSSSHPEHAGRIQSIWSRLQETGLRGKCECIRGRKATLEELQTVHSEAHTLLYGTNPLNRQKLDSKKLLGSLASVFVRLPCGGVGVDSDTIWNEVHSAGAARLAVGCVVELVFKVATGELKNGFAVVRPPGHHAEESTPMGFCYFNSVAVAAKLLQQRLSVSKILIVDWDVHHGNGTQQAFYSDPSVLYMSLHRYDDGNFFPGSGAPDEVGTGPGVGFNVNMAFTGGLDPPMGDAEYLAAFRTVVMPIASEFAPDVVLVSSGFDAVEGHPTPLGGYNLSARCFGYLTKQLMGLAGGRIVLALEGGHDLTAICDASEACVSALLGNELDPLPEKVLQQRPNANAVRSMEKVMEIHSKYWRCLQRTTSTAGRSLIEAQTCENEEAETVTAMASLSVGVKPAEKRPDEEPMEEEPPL", "assay": "Inhibition of human recombinant HDAC4 after 1 hr by luminescence assay"}, "[1]": {"molecular_target": "T1, Protein deacetylase HDAC6 (Homo sapiens, UniProt Q9UBN7)", "T1 sequence (Q9UBN7 whole entry)": "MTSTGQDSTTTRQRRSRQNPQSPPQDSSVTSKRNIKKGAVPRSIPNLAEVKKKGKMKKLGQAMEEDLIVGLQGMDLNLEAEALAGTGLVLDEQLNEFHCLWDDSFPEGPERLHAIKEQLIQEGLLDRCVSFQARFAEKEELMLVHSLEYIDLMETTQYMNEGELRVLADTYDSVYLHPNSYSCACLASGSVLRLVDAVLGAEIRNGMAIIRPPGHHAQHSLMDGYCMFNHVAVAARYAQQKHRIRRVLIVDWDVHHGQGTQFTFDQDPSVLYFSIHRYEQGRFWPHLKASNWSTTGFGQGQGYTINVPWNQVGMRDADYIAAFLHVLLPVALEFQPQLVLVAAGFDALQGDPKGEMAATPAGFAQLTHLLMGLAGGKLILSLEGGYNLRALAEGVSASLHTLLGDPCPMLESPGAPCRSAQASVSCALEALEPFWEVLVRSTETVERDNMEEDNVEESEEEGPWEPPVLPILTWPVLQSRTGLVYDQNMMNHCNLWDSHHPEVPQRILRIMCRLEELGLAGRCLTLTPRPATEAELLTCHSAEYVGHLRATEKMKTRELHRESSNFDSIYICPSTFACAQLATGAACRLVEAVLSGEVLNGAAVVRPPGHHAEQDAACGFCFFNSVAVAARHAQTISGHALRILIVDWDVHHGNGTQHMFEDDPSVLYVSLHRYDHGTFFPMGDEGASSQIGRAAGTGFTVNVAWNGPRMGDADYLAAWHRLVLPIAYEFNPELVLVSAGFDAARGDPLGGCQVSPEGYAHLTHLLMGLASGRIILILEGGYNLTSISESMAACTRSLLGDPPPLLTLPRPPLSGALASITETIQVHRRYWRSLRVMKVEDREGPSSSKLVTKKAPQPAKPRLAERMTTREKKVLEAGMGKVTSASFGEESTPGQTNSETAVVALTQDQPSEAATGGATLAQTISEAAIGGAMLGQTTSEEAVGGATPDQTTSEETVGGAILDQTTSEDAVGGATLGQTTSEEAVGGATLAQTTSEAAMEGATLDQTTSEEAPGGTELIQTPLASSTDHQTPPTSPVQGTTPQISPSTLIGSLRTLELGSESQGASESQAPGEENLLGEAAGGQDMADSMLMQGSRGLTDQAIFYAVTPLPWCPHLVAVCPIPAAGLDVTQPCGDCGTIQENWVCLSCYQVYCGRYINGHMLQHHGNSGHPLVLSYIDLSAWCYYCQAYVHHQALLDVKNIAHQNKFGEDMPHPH", "assay": "Inhibition of human recombinant HDAC6 after 1 hr by luminescence assay"}, "Histone deacetylase 1": {"molecular_target": "Histone deacetylase 1 (Homo sapiens, UniProt Q13547)", "sequence (Q13547 whole entry)": "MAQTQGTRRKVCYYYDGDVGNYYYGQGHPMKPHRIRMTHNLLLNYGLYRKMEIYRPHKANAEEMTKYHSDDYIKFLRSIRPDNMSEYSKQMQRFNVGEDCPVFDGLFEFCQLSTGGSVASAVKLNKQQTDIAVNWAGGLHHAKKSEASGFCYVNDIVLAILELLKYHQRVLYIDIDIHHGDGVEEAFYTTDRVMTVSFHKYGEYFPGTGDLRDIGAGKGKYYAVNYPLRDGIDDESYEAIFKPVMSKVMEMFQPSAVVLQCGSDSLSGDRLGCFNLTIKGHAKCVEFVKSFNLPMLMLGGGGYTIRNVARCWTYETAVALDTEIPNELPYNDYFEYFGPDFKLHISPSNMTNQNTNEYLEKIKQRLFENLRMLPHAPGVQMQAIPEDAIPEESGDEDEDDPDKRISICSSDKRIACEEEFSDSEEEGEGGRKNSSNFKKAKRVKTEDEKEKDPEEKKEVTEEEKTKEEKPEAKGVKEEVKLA", "assay": "Inhibition of human recombinant HDAC1 after 1 hr by luminescence assay"}}}
{"smiles": "CCCC[C@H]1NC(=O)C[C@H]2/C=C/CCSSC[C@@H](NC1=O)C(=O)N[C@H]([C@@H](C)CC)[C@@H](O)CC(=O)O2", "note": "[THAILANDEPSIN B]", "values": [{"measurement": "IC50", "setting": "Histone deacetylase 4", "value": 57400, "unit": "nM"}, {"measurement": "IC50", "setting": "[1]", "value": 1190, "unit": "nM"}, {"measurement": "IC50", "setting": "Histone deacetylase 1", "value": 1.2, "unit": "nM"}]}
{"smiles": "CC[C@H](C)[C@H]1NC(=O)[C@H]2CSSCC/C=C/[C@H](CC(=O)N[C@H](CCSC)C(=O)N2)OC(=O)C[C@@H]1O", "note": "[THAILANDEPSIN A]", "values": [{"measurement": "IC50", "setting": "Histone deacetylase 4", "value": 37200, "unit": "nM"}, {"measurement": "IC50", "setting": "[1]", "value": 830, "unit": "nM"}, {"measurement": "IC50", "setting": "Histone deacetylase 1", "value": 0.28, "unit": "nM"}]}
{"smiles": "C/C=C1\\NC(=O)[C@H]2CSSCC/C=C/[C@H](CC(=O)N[C@H](C(C)C)C(=O)N2)OC(=O)[C@H](C(C)C)NC1=O", "note": "[ROMIDEPSIN]", "values": [{"measurement": "IC50", "setting": "Histone deacetylase 4", "value": 8670, "unit": "nM"}]}
{"smiles": "CSCC[C@H]1NC(=O)C[C@H]2/C=C/CCSSC[C@@H](NC1=O)C(=O)N[C@H](CC(C)C)[C@@H](O)CC(=O)O2", "values": [{"measurement": "IC50", "setting": "Histone deacetylase 4", "value": 58900, "unit": "nM"}, {"measurement": "IC50", "setting": "[1]", "value": 1680, "unit": "nM"}, {"measurement": "IC50", "setting": "Histone deacetylase 1", "value": 0.94, "unit": "nM"}]}
{"smiles": "CSCC[C@H]1NC(=O)C[C@H]2/C=C/CCSSC[C@@H](NC1=O)C(=O)N[C@H](C(C)C)[C@@H](O)CC(=O)O2", "values": [{"measurement": "IC50", "setting": "Histone deacetylase 4", "value": 38000, "unit": "nM"}, {"measurement": "IC50", "setting": "[1]", "value": 780, "unit": "nM"}, {"measurement": "IC50", "setting": "Histone deacetylase 1", "value": 0.2, "unit": "nM"}]}
{"smiles": "CCCC[C@H]1NC(=O)C[C@H]2/C=C/CCSSC[C@@H](NC1=O)C(=O)N[C@H](C(C)C)[C@@H](O)CC(=O)O2", "values": [{"measurement": "IC50", "setting": "Histone deacetylase 4", "value": 47000, "unit": "nM"}, {"measurement": "IC50", "setting": "[1]", "value": 930, "unit": "nM"}, {"measurement": "IC50", "setting": "Histone deacetylase 1", "value": 0.48, "unit": "nM"}]}
{"smiles": "CCCC[C@H]1NC(=O)C[C@H]2/C=C/CCSSC[C@@H](NC1=O)C(=O)N[C@H](CC(C)C)[C@@H](O)CC(=O)O2", "values": [{"measurement": "IC50", "setting": "Histone deacetylase 4", "value": 132000, "unit": "nM"}, {"measurement": "IC50", "setting": "[1]", "value": 1920, "unit": "nM"}, {"measurement": "IC50", "setting": "Histone deacetylase 1", "value": 2.6, "unit": "nM"}]}
